According to PMC6934184, “Selective DNA-PKcs inhibition extends the therapeutic index of localized radiotherapy and chemotherapy” (The Journal of Clinical Investigation, 2019):

Biological target: T1, MAP3K3 (MEKK3) (Homo sapiens, UniProt Q99759)
T1 construct: purchased Thermo Fisher Scientific (Life Technologies) SelectScreen
Assay: SelectScreen LanthaScreen
Assay type: binding
Conditions: read-out: % displacement
Procedure, shortened: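 Percent values come from Thermo SelectScreen profiling of NU5455, combining activity and binding assays. CSF1R was run in Z'LYTE format at Km app ATP, and CAMK1 in Adapta format with ATP listed at 10.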

T1 sequence (Q99759 whole entry): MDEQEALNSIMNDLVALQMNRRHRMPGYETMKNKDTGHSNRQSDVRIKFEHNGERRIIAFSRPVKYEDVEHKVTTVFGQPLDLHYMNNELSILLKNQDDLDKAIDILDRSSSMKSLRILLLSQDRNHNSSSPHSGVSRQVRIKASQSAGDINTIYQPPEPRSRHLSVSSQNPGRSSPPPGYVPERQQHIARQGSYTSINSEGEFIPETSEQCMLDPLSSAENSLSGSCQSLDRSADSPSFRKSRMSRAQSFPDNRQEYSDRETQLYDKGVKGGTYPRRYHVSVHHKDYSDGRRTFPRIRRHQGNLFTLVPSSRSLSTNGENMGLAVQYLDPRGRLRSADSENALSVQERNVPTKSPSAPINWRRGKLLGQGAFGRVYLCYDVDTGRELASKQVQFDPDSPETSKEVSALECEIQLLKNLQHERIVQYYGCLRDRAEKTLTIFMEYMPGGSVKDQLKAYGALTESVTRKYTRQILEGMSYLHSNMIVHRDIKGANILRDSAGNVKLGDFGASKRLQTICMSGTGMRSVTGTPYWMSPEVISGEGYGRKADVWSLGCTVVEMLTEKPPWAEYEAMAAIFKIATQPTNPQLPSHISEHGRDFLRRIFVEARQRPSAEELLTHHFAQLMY

CN(C(=O)CN1CCOCC1)c1ccc2sc3c(-c4cccc5c(=O)cc(N6CC7CCC(C6)O7)oc45)cccc3c2c1 [NU5455]
inhibition at 1 µM: -1.1%
